For orientation: inhibition means the percentage by which the read-out fell short of the control. A low value points to a response near the control.

This test has as its target T1, human Hv1 channel (Homo sapiens, UniProt Q96D96).
T1 construct: expressed in transfected cells; host or cells: Xenopus oocytes (cRNA injection, pGEMHE vector)
T1 sequence (Q96D96 1-273): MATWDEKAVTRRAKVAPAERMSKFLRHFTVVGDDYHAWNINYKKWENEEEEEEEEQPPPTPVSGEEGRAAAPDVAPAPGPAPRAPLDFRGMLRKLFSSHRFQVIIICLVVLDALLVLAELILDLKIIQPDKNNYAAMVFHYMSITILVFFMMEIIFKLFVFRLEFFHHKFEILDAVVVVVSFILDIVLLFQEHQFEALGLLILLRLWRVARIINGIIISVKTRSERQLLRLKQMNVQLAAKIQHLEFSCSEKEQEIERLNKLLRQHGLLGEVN
Kind of test: Patch-clamp assay of Hv1 proton transport inhibition in Xenopus oocytes expressing human Hv1. The class given is cell-based. As to the method: Plasmids were linearized with either NheI or SphI restriction enzymes (New England Biolabs) before in vitro transcription. RNA synthesis was carried out with a T7 mMessage mMachine transcription kit (Ambion). […] The linearized plasmid was transcribed with SP6 RNA polymerase. cRNAs were injected in Xenopus oocytes (50 nl per cell, 0.3-1.5 μg/μl) 1-3 days before the electro-physiological measurements. Cells were kept at 18° C. in ND96 medium containing 96 mM NaCl, 2 mM KCl, 1.8 mM CaCl2, 1 mM MgCl2, 10 mM HEPES, 5 mM pyruvate, 100 μg/ml gentamycin (pH 7.2).
The bath solution contained 100 mM 2-(N-morpholino)ethanesulphonic acid (MES), 30 mM tetraethylammonium (TEA) methanesulfonate, 5 mM TEA chloride, 5 mM ethyleneglycol-bis(2-ami-noethyl)-N,N,N0,N0-tetra-acetic acid (EGTA), adjusted to pH 6.0 with TEA hydroxide. For recordings carried out in the absence of pH gradient (pHi=pHo=6.0), the pipette solution had the same composition of the bath solution. Some of the measurements were performed in the presence of a pH gradient (pHi=6.0, pHo=7.5). In these cases the extracellular solution contained 100 mM 4-(2-hydroxyethyl)-1-piperazineethanesulfonic acid (HEPES), 40 mM TEA methanesulfonate, 5 mM TEA chloride, adjusted to pH 7.5 with TEA hydroxide. Native proton currents in BV-2, RAW264.7, and THP-1 were measured in whole-cell configuration with an intracellular solution containing: 90 mM TEA methanesulfonate, 100 mM MES, 2 mM MgCl2, 2 mM EGTA, adjusted to pH 6.0 with TEA hydroxide. The extracellular solution contained: 85 mM TEA methanesulfonate, 100 mM HEPES, 3 mM CaCl2, 1 mM EGTA, adjusted to pH 7.5 with TEA hydroxide. All measurements were performed at 22° C.±2° C. Pipettes had 2-4 M access resistance. Current traces were filtered at 1 kHz, sampled at 5 kHz and analyzed with Clampfit10.2 (Molecular Devices) and Origin8.1 (OriginLab).
(Patch clamp records ionic current or voltage across a cell membrane.)

Take `N=C(N)Nc1nc2ccc([N+](=O)[O-])cc2[nH]1` [5-nitro-2-guanidinobenzimidazole]: at 4 µM the inhibition (4 μM) was 57 ± 10%.
Under “200 μM”, `CN(C)C(=N)NC(=N)N` [1,1-dimethylbiguanide] had an inhibition at 200 µM of 6.8 ± 2.25%.
For `Nc1nc2ccccc2[nH]1` [2-aminobenzimidazole], the inhibition at 200 µM (200 μM) worked out at 29.8 ± 2.5%.
The same measure, in the same setting: in the case of `N=C(N)NN` [aminoguanidine, amino-guanidine] it was 4.3 ± 2.3%.
As to `NC(N)=Nc1nc(CSCCC(N)=NS(N)(=O)=O)cs1` [3-([2-(diaminomethyleneamino)thiazol-4-yllmethylthio)-N′-sulfamoylpropanimidamide], under “200 μM”, the “Hv1 proton transport % inhibition” value stood at 21.5 ± 2.7%.
As for `N=C(N)Nc1nc2ccccc2[nH]1` [2-guanidinobenzimidazole], testing at 200 µM (200 μM) gave an inhibition of 82.6 ± 2.25%.
As for `CN1CC(=O)NC1=N` [Creatinine, reference compound], the “Hv1 proton transport % inhibition” value (600 μM) worked out at 0%.
Turning to `CCOC(=O)c1sc(NC(=N)N)nc1C` [ethyl 2-[[amino(imino)methyl]amino]-4-methyl-1,3-thiazole-5-carboxylate], the inhibition at 200 µM (200 μM) was 31%.
As for `CCOC(=O)Cc1sc(NC(=N)N)nc1C` [ethyl (2-[[amino(imino)methyl]amino1-4-methyl-1,3-thiazol-5-yl)acetate], the “Hv1 proton transport % inhibition” value (200 μM) is reported as 68.2 ± 2.2%.
`N=C(N)Nc1nc2ccccc2o1` [1-(1,3-benzoxazol-2-yl)guanidine]: 200 µM produced 1 ± 1% inhibition (200 μM).
`CC(C)OC(=O)CCCCC(=NNC(=N)N)c1ccccc1` [isopropyl 6-(guanidinoimino)-6-phenylhexanoate]: where the note is “200 μM”, 200 µM produced 73 ± 3% inhibition.
Still for that read-out and setting: in the case of `Nc1ncc[nH]1` [2-aminoimidazole] it was 21.2 ± 5.1%.
With `CCOC(=O)c1nc(NC(=N)N)sc1C` [ethyl 2-[[amino(imino)methyl]amino]-5-methyl-1,3-thiazole-4-carboxylate], the inhibition at 200 µM (200 μM) is 39.4 ± 3.4%.
In the case of `Cc1nc(NC(=N)N)nc2ccccc12` [2-guanidino-4-methylquinazoline], for the setting “200 μM”, the inhibition at 200 µM is 31.7 ± 0.7%.
For the molecule `COc1ccc(CCN2CCC(Nc3nc4ccccc4n3Cc3ccc(F)cc3)CC2)cc1` [1-[(4-fluorophenyl)methyl]-N-[1-[2-(4-methoxyphenyl)ethyl]-4-piperidylibenzoimidazol-2-amine], the “Hv1 proton transport % inhibition” value (200 μM) came to 67 ± 6%.
In turn, `Nc1ncccn1` [2-aminopyrimidine] registered an inhibition at 200 µM (200 μM) of 2 ± 1%.
Still for that read-out and setting: in the case of `N=C(N)Nc1nc2ccccc2s1` [1-(1,3-benzothiazol-2-yl)guanidine] it was 81%; in that of `CC(=O)N(C(=N)NC(=N)N)c1ccccc1` [N-(guanidino-iminomethyl)-N-phenylacetamide], 0.5 ± 1%; in that of `N=C(N)NCCCCN` [agmatine], 18.5 ± 1.5%.
The molecule `Nc1nnc(Nc2ccc(Cl)cc2)[nH]1` [N(3)-(4-chlorophenyl)-4H-1,2,4-triazole-3,5-diamine] showed an inhibition at 40 µM (40 μM) of 28 ± 7%.
